{
  "source": "patent US6841570B2",
  "about": "“Materials and methods for controlling wood-boring insects” (priority 2002, dated 2005)",
  "key": {"[1]": {"tested_on": "Reticultiermes flavipes", "experiment": "Toxicity tests of nepetalactone on treated filter paper in petri dishes", "assay_type": "in vivo", "settings": "filter paper treated with acetone solutions; strengths 5.35%, 0.535%, 0.0535%, 0.000004%", "protocol": "Materials: Reticultiermes flavipes, from the family Rhinotermitidae, the most common subterranean termites, were collected for toxicity tests, nepetalactone was obtained by commercial purchase (Kooky Kat Catnip Co., B.C.). For repellency assays, a donated amount of nepetalactone was provided from Iowa State University, courtesy of Dr. Joel Coates. Bioassays: Acetone was used as solvent for nepetalactone and control (permethrin). Absorbent (Fisherbrand) coarse, filter paper was treated with nepetalactone and controls and placed in standard, sterile polystyrene 100×15 mm petri dishes. Reticultierme flavipes (20 per replication) were placed in petri dishes and location monitored at 6 ten minute intervals. Toxicity tests: Toxicity tests of nepetalactone were conducted to determine non-lethal percentage for repellency assays. Permethrin (0.1%) solutions served as known control. Four strengths of nepetalactone were measured: 5.35%, 0.535%, 0.0535%, and 0.000004%. Based on the evident mortality, 0.0535% nepetalactone was selected as the repellency test solution."}, "[2]": {"tested_on": "Reticultiermes flavipes", "experiment": "Repellency tests, half-treated filter paper in petri dishes", "assay_type": "in vivo", "settings": "0.0535% nepetalactone on half of the filter paper; six ten minute intervals", "protocol": "Materials: Reticultiermes flavipes, from the family Rhinotermitidae, the most common subterranean termites, were collected for toxicity tests, nepetalactone was obtained by commercial purchase (Kooky Kat Catnip Co., B.C.). For repellency assays, a donated amount of nepetalactone was provided from Iowa State University, courtesy of Dr. Joel Coates. Bioassays: Acetone was used as solvent for nepetalactone and control (permethrin). Absorbent (Fisherbrand) coarse, filter paper was treated with nepetalactone and controls and placed in standard, sterile polystyrene 100×15 mm petri dishes. Reticultierme flavipes (20 per replication) were placed in petri dishes and location monitored at 6 ten minute intervals. Repellency tests: Eight trials each of 0.0535% nepetalactone, 0.1% permethrin, blank, and pure acetone solvent were ran to test repellency. Filter papers were cut in half with solvent on one half and treated side on the opposite half. […] Termites were measured on treated and untreated sides at six consecutive ten minute intervals. Percent repellency was calculated as follows: (# live termites−# live termites treated)/total #termites. Standard mean of the Error (SEM): SEM=(variance)^1/2[…]."}},
  "note": "Entries after “also recorded” stand apart in the source; their conditions may differ.",
  "data": [
    {"smiles": "CC1=COC(=O)C2C(C)CCC12", "note": "(centres unmarked) [nepetalactone, 5,6,7,7a-tetrahydro-4,7-dimethyl cyclopenta[c]pyran-1-(4aH)-one]", "values": [
      {"measurement": "toxic effect (mortality) to termites", "setting": "[1]", "result": "lethal to termites; also recorded: toxic effects"},
      {"measurement": "repellant effect on termites", "setting": "[2]", "result": "dramatic repellant effect; also recorded: clear repellant"}
    ]}
  ]
}
